What follows are molecules tested against T1, Aβ1-40 peptide (Homo sapiens, UniProt P05067) (assay: Inhibition of aggregation of monomeric Aβ1-40 peptide stimulated by a seed of pre-formed sonicated Aβ1-40 amyloid fibrils (HPLC of residual monomer)). Settings: 20 μM Aβ1-40 monomer, 50 μM test compound, 4 μM pre-formed sonicated Aβ1-40 fibrils, 2 h at 37° C., pH 7.4.
T1 construct: An Aβ1-40 peptide monomer stock solution was prepared by dissolving the peptide in dimethylsulfoxide
Format: biochemical
Experimental: The compounds disclosed in the present invention interfere with the aggregation of monomeric Aβ1-40 peptide stimulated by a seed of Aβ1-40 amyloid fibrils. The activity of the compounds was assessed according to the procedure reported below.
An Aβ1-40 peptide monomer stock solution was prepared by dissolving the peptide in dimethylsulfoxide at a concentration of 33.33 mg/ml. The stock solution was further diluted 11.5 times with dimethylsulfoxide. This solution was then diluted with 10 mM phosphate buffer pH 7.4 containing 150 mM sodium chloride to prepare the test solution. To an eppendorf tube containing 47 μl of Aβ1-40 peptide monomer solution were added 3 μl of a 830 μM water solution of the test compound containing 66.4 μM, based on the Aβ1-40 monomer content, of pre-formed sonicated Aβ1-40 fibrils: the resulting solution was 20 μM in Aβ1-40 monomer, 50 μM in the test compound and contained 4 μM, based on the Aβ1-40 monomer content, of pre-formed sonicated Aβ1-40 fibrils. The aggregation was allowed to proceed for two hours at 37° C. The suspension was then centrifuged at 15000 rpm for 15 minutes at +4° C., the supernatant was collected and the Aβ1-40 monomer was quantitated by HPLC. The activity is expressed as the percent of inhibition of the aggregation of a 20 μM Aβ1-40 monomer solution stimulated by 4 μM, based on the Aβ1-40 monomer content, pre-formed sonicated Aβ1-40 fibrils.

T1 sequence (P05067 672-711 limits assumed): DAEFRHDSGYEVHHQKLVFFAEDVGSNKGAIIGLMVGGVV

Going from `COc1cccc2c1C(=O)c1c(O)c3c(c(O)c1C2=O)CC(O)(C(=O)CN1CC=CCC1)CC3N1CCOCC1` (stereo not shown) [Compound 1k, 7-deoxy-7-(4-morpholinyl) -14-(1,2,3,6-tetrahydropyridin-1-yl)daunomycinone] to `COc1cccc2c1C(=O)c1c(O)c3c(c(O)c1C2=O)CC(O)(C(=O)CN1CC=CCC1)CC3O` (stereo not shown) [Compound 1a, 14-(1,2,3,6-tetrahydropyridin-1-yl)daunomycinone], the “% inhibition” value rises from 52.1% to 74.1%.

First: COc1cccc2c1C(=O)c1c(O)c3c(c(O)c1C2=O)CC(O)(C(=O)CN1CCOCC1)CC3 (stereo not shown) [Compound A17, 7-deoxy-14-(4-morpholinyl)-daunomycinone, reference compound]
Second: COc1cccc2c1C(=O)c1c(O)c3c(c(O)c1C2=O)CC(O)(C(O)CN1CC=CCC1)CC3 [Compound 1d, (13R)-7-deoxy-13-dihvdro-14-(1,2,3,6-tetrahydropyridin-1-yl)daunomycinone]
The “% inhibition” value of the first is lower: 11.4% for the first, 47.3% for the second.
